In publication PMC9658984, “Acetylation Enhances the Anticancer Activity and Oral Bioavailability of 5-Demethyltangeretin” (International Journal of Molecular Sciences, 2022):
Marks after values point to notes of the source that are not given here.

Columns and labels:
[1] = test system: PC-3 human prostate cancer cells; assay: MTT cell viability assay; type: cell-based; settings: Homo sapiens; PC-3 cells, 48 h, MTT
Procedure: PC-3 human prostate cancer cell line was obtained from the Bioresource Collection and Research Center (Hsinchu, Taiwan) and maintained in RPMI medium with 10% FBS and 1% penicillin-streptomycin (PS). The cells were incubated in a 5% CO2 humidified atmosphere at 37 °C. TAN, 5-DTAN, and 5-ATAN were dissolved in DMSO to prepare a 20 mM sample stock, and the final ratio of the DMSO in the treatment medium was 0.1%.
(§1) PC-3 cells were seeded in 96-well plates at a density of 2.5 × 10^3 cells/well and allowed to attach for 24 h. The medium was changed to serum-free RPMI supplemented with 0–20 μM TAN, 5-DTAN, or 5-ATAN, and then incubated for an additional 48 h. The cell viability was determined by the MTT assay and represented as a percentage of the growth of the DMSO-treated cells. FACScan flow cytometer (Becton Dickinson, San Jose, CA, USA) was used to analyze the cell cycle distribution as previously mentioned. Briefly, PC-3 cells treated with various concentrations of 5-DTAN or 5-ATAN for 48 h were trypsinized and gently fixed in 70% ice-cold ethanol and stored at −20 °C for at least 24 h. Then, the cells were washed with cold phosphate-buffered saline (PBS), followed by incubation with 40 μg/mL PI, 0.1 mg/mL RNase A, and 0.1% TritonX-100 in the dark for 30 min at room temperature. Subsequently, the cell cycle distribution of the PI-stained cells was analyzed by a FACScan flow cytometer, and the results were analyzed and calculated using ModFit LT Ver. 3.0 software. The proportion of the sub-G1 phase was quantitated and represented as the apoptotic ratio. Furthermore, a QIAamp DNA mini kit was used to extract DNA from the PC-3 cells treated with 5-DTAN or 5-ATAN for 48 h. Then, the extracted DNA was loaded on a 2% agarose gel containing HealthView^TM Nucleic Acid Stain (Genomics, New Taipei, Taiwan) for electrophoresis at 50 V. The gel was visualized under UV light, and the DNA fragmentation pattern was photographed.

[2] = test system: PC-3 cells; assay: Cell cycle distribution / sub-G1 apoptotic ratio by PI flow cytometry; type: cell-based, human; settings: 48 h
Procedure: as §1

[3] = test system: PC-3 cells; assay: DNA fragmentation (agarose gel electrophoresis); type: cell-based, human; settings: 48 h
Procedure: as §1, with “Then, the extracted DNA was loaded on a 2% agarose gel containing HealthView^TM Nucleic Acid Stain (Genomics, New Taipei, Taiwan) for electrophoresis at 50 V. The gel was visualized under UV light, and the DNA fragmentation pattern was photographed.” left out

[4] = test system: PC-3 cell xenografts; assay: Tumor growth inhibition in PC-3 cell xenograft model; type: in vivo, nude mice
Description: Male nu/nu mice were obtained from BioLasco Taiwan (Taipei, Taiwan) and maintained on a standard laboratory chow (Purina rodent chow 5001, Purina, St. Louis, MO, USA). At 5 weeks of age, nude mice were used for the xenograft experiment. For the oral bioavailability study, 5-week-old male […] mice were purchased from the National Laboratory Animal Center (Taipei, Taiwan), and the experiment was started after 1 week of acclimation. All mice were housed in an air-conditioned room (temperature: 22 ± 2 °C; humidity: 50–60%) under standard conditions (12 h light/12 h dark cycle). All animal studies were approved by the National Pingtung University of Science and Technology, Institutional Animal Care and Use Committee with protocol numbers NPUST-102-015 and NPUST-105-045.
The 5-week-old nude mice were divided into three groups (n = 6) and administered with the vehicle, 5-DTAN (10 mg/kg), and 5-ATAN (10 mg/kg), respectively. Tumors were established by subcutaneous injections of PC-3 cells (1 × 10^6 cells) into the right flank side of nude mice. The tumor size was measured twice a week with digital calipers, and the tumor volume (V) was calculated by the following formula: V = length × width^2 × 0.5. On day 24, the mice were sacrificed by CO2, and the tumors were harvested and weighed.

[5] = design: method as in doi:10.1016/j.jff.2008.09.003; settings: cited from earlier work

Row | Compound | IC50 [1] | Cell Cycle Distribution (%) G0/G1 ([2]; 2.5 μM) | Cell Cycle Distribution (%) G2/M ([2]; 2.5 μM) | Cell Cycle Distribution (%) S ([2]; 2.5 μM) | Cell Cycle Distribution (%) G0/G1 ([2]; 5 μM) | Cell Cycle Distribution (%) G2/M ([2]; 5 μM) | Cell Cycle Distribution (%) S ([2]; 5 μM) | Cell Cycle Distribution (%) G0/G1 ([2]; 10 μM) | Cell Cycle Distribution (%) G2/M ([2]; 10 μM) | Cell Cycle Distribution (%) S ([2]; 10 μM) | Concentration at which DNA ladders were observed [3] | Tumor growth inhibitory rate, estimated by the means of tumor weight ([4]; 10 mg/kg daily oral, nude mice) | Tumor weight at the end of the experiment ([4]; 10 mg/kg daily oral, nude mice, day 24, control 2.47 ± 0.43 g) | Effect on tumor volume ([4]; 10 mg/kg daily, PC-3 cell xenografts in nude mice) | Solubility in biological systems [5]
1 | COc1ccc(-c2cc(=O)c3c(O)c(OC)c(OC)c(OC)c3o2)cc1 [5-DTAN, 5-hydroxy-6,7,8,4′-tetramethoxyflavone, reference compound] | 11.8 µM | 60.2 ± 2.8 ^b % | 31.6 ± 2.7 ^a % | 8.2 ± 0.1% | 59.9 ± 0.4 ^b % | 31.4 ± 0.5 ^a % | 8.7 ± 0.3% | 58.2 ± 2.4 ^b % | 32.6 ± 1.1 ^a % | 8.5 ± 0.9% | 20 µM | 43.7% | 1.39 ± 0.36 g | significantly suppressed | extremely poor solubility
2 | COc1ccc(-c2cc(=O)c3c(OC)c(OC)c(OC)c(OC)c3o2)cc1 [TAN, 5,6,7,8,4′-pentamethoxyflavone, reference compound] | 17.2 µM | – | – | – | – | – | – | – | – | – | – | – | – | – | –
